The record followed here is patent US20040253665A1, “Novel peptide-producing enzyme, microbe producing the enzyme and method for dipeptide synthesis using them” (AJINOMOTO CO., INC., priority 2002, published 2004).

Read-outs that look alike come from different tables or passages of the source. Non-standard residues stand in square brackets, D forms with d. Residues, ends and D or L forms follow the SMILES beside them.

In assay [1] the test system is peptide-producing enzyme (Mono S fraction) from Empedobacter brevis strain FERM BP-8113. Put plainly: Enzyme substrate specificity (1)-(10), (13), (14). As to conditions: pH 9.0, 25° C., 3 hours. The format is biochemical. From the text: Ester specificity was examined in the case of using L-amino acid ester for the carboxy component. […] The amounts of L-Ala-L-Gln produced in this reaction are shown in Table 4 (HCl represents hydrochloride in Table 4). Peptide production was examined in the case of using L-alanine methyl ester for the carboxy component and using various L-amino acids for the amine component. […] (The “+” mark indicates those peptides for which production was confirmed but which were unable to be quantified due to the absence of a standard, while “tr” indicates a trace amount.) Peptide production was examined in the case of using various types of L-amino acid methyl esters for the carboxy component and using L-glutamine for the amine component. […] Peptide production was examined in the case of using various L-amino acid methyl esters for the carboxy component and various L-amino acids for the amine component. […] (The “tr” indicates a trace amount.) Furthermore, Tween-80 was added to the reaction system to a final concentration of 0.1% in the case of using L-Trp-OMe. (The “+” mark indicates those peptides for which production was confirmed but which were unable to be quantified due to the absence of a standard.) […] (The “tr” indicates a trace amount.) Peptide production was examined using various L-amino acid amides for the carboxy component, and various L-amino acids for the amine component. […] Peptide production was examined in the case of using various L-alanine methyl esters for the carboxy component and C-protected L-amino acids for the amine component. […] Peptide production was examined in the case of using various amino acid methyl esters for the carboxy component and methylamine for the amine component. […] Peptide production was examined in the case of using β-amino acid ester for the carboxy component or β-amino acid for the amine component. […] (The “tr” indicates a trace amount.) Oligopeptide production was examined in the case of using L-amino acid ester for the carboxy component and peptide for the amine component. […] Substrate specificity was additionally assessed using the same enzyme fraction as that used in Example 5. […] (A “+” mark indicates those for which production was confirmed but which were unable to be quantified due to the absence of a standard, while “tr” indicates a trace amount). Substrate specificity with respect to oligopeptide production was assessed using the same enzyme fraction as Example 26. […] (A “+” mark indicates those for which production was confirmed but which were unable to be quantified due to the absence of a standard, while “tr” indicates a trace amount). It should be noted that hydrochlorides were used for all of the carboxy components.

Assay [2] relates to enzyme (SP-Sepharose HP fraction) derived from Sphingobacterium sp. strain FERM BP-8124. The format is biochemical. Also noted: key to Produced peptide (mM): +: those peptides for which production was confirmed but which were unable to be quantified due to the absence of a standard; a trace amount. As to conditions: 0.33 units enzyme, pH 9.0, 25° C., 1.5 hours. The protocol:
Substrate specificity was examined for enzyme derived from Sphingobacterium sp. strain FERM BP-8124 (Depositary institution: National Institute for Advanced Industrial Science and Technology, International Patent Organism Depositary, Address of depositary institution: Central. 6, 1-1-1 Higashi, Tsukuba City, Ibaraki Prefecture, Japan, International deposit date: Jul. 22, 2002). 100 μl of 100 mM borate buffer (pH 9.0) containing the various carboxy components at a final concentration of 100 mM and the various amine components at a final concentration of 150 mM shown in Tables 15-1 to 15-4, the SP-Sepharose HP fraction enzyme purified in Example 22 (addition of 0.33 units in the reaction liquid) and 10 mM EDTA were allowed to react at 25° C. for 1.5 hours. […] In addition, hydrochlorides were used for all carboxy components.
Substrate specificity with respect to oligopeptide production was examined for enzyme derived from Sphingobacterium sp. strain FERM BP-8124 (Depositary institution: National Institute for Advanced Industrial Science and Technology,.International Patent Organism Depositary, Address of depositary institution: Chuo Dai-6, 1-1 Higashi 1-Chome, Tsukuba-shi, Ibaraki-ken, Japan, International deposit date: Jul. 22, 2002). A 100 μl aliquot of 100 mM borate buffer (pH 9.0) containing the various carboxy components at a final concentration of 100 mM and the various amine components at a final concentration of 150 mM shown in Table 16, the SP-Sepharose HP fraction enzyme purified in Example 22 (addition of 0.33 units in the reaction liquid) and 10 mM EDTA were allowed to react for 1.5 hours at 25° C. Furthermore, hydrochloride salts were used for all carboxy components.

Setting [3] is: L-amino acid methyl ester hydrochloride 100 mM, 150 mM L-glutamine.
Where [4] appears, read: Table 15-2, carboxy component 100 mM, L-Gln 150 mM.
Where [5] appears, read: L-Ala-OMe 100 mM, L-amino acid amide 150 mM as amine component.
The mark [6] stands for this setting: Table 15-4, amides or methylamine as components, 100 mM / 150 mM.
The mark [7] stands for this setting: 100 mM L-alanine methyl ester hydrochloride, L-amino acid 150 mM.
The mark [8] stands for this setting: Table 15-1, carboxy component 100 mM, amine component 150 mM.
[9] abbreviates: L-amino acid methyl ester hydrochloride 100 mM, L-amino acid 150 mM.
Setting [10] is: Table 15-3, carboxy component 100 mM, amine component 150 mM.
[11] abbreviates: L-amino acid ester 100 mM, amino acid or peptide amine component 150 mM.
Where [12] appears, read: Table 16, oligopeptide production, carboxy component 100 mM, amine component 150 mM.
[13] abbreviates: L or D amino acid methyl ester hydrochloride 100 mM, L or D amino acid 150 mM.

As to `CSCC[C@H](N)C(=O)N[C@@H](CCC(N)=O)C(=O)O` [L-Met-L-Gln] (H-Met-Gln-OH), the results for the “Produced peptide” value in assay [1] (setting [3]) and in assay [2] (setting [4]) were 12.0 mM and 32.6 mM, respectively.
Regarding `CC[C@H](C)[C@H](N)C(=O)N[C@@H](CCC(N)=O)C(=O)O` [L-Ile-L-Gln] (H-Ile-Gln-OH), the “Produced peptide” value came out at 8.4 mM in assay [1] (setting [3]) and 6.4 mM in assay [2] (setting [4]).
As for `C[C@H](N)C(=O)N[C@@H](C)C(N)=O` [L-Ala-L-Ala-NH2] (H-Ala-Ala-NH2), the “Produced peptide” value is reported as 8.3 mM in assay [1] (setting [5]) and 9.2 mM in assay [2] (setting [6]).
Turning to `C[C@H](N)C(=O)N[C@@H](Cc1c[nH]c2ccccc12)C(=O)O` [L-Ala-L-Trp] (H-Ala-Trp-OH), the results for the “Produced peptide” value in assay [1] (setting [7]) and in assay [2] (setting [8]) were 53.9 mM and 46.0 mM, respectively.
Take `CC[C@H](C)[C@H](N)C(=O)N[C@@H](CO)C(=O)O` [L-Ile-L-Ser] (H-Ile-Ser-OH): the “Produced peptide” value in assay [1] (setting [9]) came out at 17.2 mM; in assay [2] (setting [10]) it was 17.3 mM.
As to L-Ala-L-Ala-L-Ala, the “Produced peptide” value in assay [1] (setting [11]) is recorded as 57.5 mM; in assay [2] (setting [12]) it was 41.1 mM.
Take `C[C@H](N)C(=O)NCC(=O)O` [L-Ala-Gly] (H-Ala-Gly-OH): the entries for the “Produced peptide” value in assay [1] (setting [7]) and in assay [2] (setting [8]) were 13.7 mM and 11.1 mM, respectively.
For the compound L-Ala-L-Leu-L-Ala, the entries for the “Produced peptide” value in assay [1] (setting [11]) and in assay [2] (setting [12]) were 48.3 mM and 40.7 mM, respectively.
Consider `CSCC[C@H](NC(=O)[C@@H](N)[C@@H](C)O)C(=O)O` [L-Thr-L-Met] (H-Thr-Met-OH), for which the “Produced peptide” value was determined as 38.6 mM in assay [1] (setting [9]) and 28.9 mM in assay [2] (setting [10]).
Take `NCC(=O)N[C@@H](CCCN=C(N)N)C(=O)O` [Gly-L-Arg] (H-Gly-Arg-OH): the “Produced peptide” value in assay [1] (setting [9]) was 25.5 mM; in assay [2] (setting [10]) it was 17.9 mM.
`CC[C@H](C)[C@H](N)C(=O)N[C@@H](Cc1ccccc1)C(=O)O` [L-Ile-L-Phe] (H-Ile-Phe-OH): the “Produced peptide” value in assay [1] (setting [9]) is given as 5.2 mM; in assay [2] (setting [10]), 1.5 mM.
As for `NCC(=O)N[C@@H](CCC(N)=O)C(=O)O` [Gly-L-Gln] (H-Gly-Gln-OH), the entries for the “Produced peptide” value in assay [1] (setting [3]) and in assay [2] (setting [4]) were 54.7 mM and 61.1 mM, respectively.
As for L-Thr-Gly-Gly, the results for the “Produced peptide” value in assay [1] (setting [11]) and in assay [2] (setting [12]) were 83.0 mM and 8.4 mM, respectively.
In the case of `CC(C)[C@H](N)C(=O)N[C@@H](CO)C(=O)O` [L-Val-L-Ser] (H-Val-Ser-OH), the results for the “Produced peptide” value in assay [1] (setting [9]) and in assay [2] (setting [10]) were 30.8 mM and 31.9 mM, respectively.
Consider `CSCC[C@H](NC(=O)[C@@H](N)CCCN=C(N)N)C(=O)O` [L-Arg-L-Met] (H-Arg-Met-OH), for which the “Produced peptide” value in assay [1] (setting [9]) was 0.7 mM. In addition, the “Produced peptide (mM)” value in assay [2] (setting [10]) is reported as “tr”.
For `NC(=O)CC[C@H](NC(=O)[C@@H]1CCCN1)C(=O)O` [L-Pro-L-Gln] (H-Pro-Gln-OH), the figures for the “Produced peptide” value in assay [1] (setting [3]) and in assay [2] (setting [4]) were 2.2 mM and 1.8 mM, respectively.
In the case of `CSCC[C@H](N)C(=O)N[C@@H](CO)C(=O)O` [L-Met-L-Ser] (H-Met-Ser-OH), the “Produced peptide” value in assay [1] (setting [9]) came to 12.8 mM; in assay [2] (setting [10]) it was 25.3 mM.
As for `N[C@@H](CO)C(=O)N[C@@H](Cc1ccccc1)C(=O)O` [L-Ser-L-Phe], the “Produced peptide” value is 20.3 mM in assay [1] (setting [9]) and 4.3 mM in assay [2] (setting [10]).
`NCC(=O)N[C@@H](Cc1ccccc1)C(=O)O` [Gly-L-Phe] (H-Gly-Phe-OH): the “Produced peptide” value in assay [1] (setting [9]) is 44.0 mM; in assay [1] (oligopeptide production, amount of enzyme 0.1 units) it was 17.3 mM; in assay [2] (setting [10]), 20.0 mM.
As for `C[C@@H](N)C(=O)N[C@@H](CO)C(=O)O` [D-Ala-L-Ser] (H-[dA]-Ser-OH), the “Produced peptide” value was 20.3 mM in assay [1] (setting [13]) and 24.1 mM in assay [2] (setting [8]).
Take `C[C@H](N)C(=O)NCC(N)=O` [L-Ala-Gly-NH2] (H-Ala-Gly-NH2): the “Produced peptide” value was determined as 7.4 mM in assay [1] (setting [5]) and 15.1 mM in assay [2] (setting [6]).
Turning to L-Ala-L-Phe-Gly, the “Produced peptide” value in assay [1] (setting [11]) came to 43.7 mM; in assay [2] (setting [12]) it was 34.0 mM.
For `NCC(=O)N[C@@H](CO)C(=O)O` [Gly-L-Ser] (H-Gly-Ser-OH), the entries for the “Produced peptide” value in assay [1] (setting [9]) and in assay [2] (setting [10]) were 44.2 mM and 53.8 mM, respectively.
As for `CSCC[C@H](NC(=O)[C@@H](N)CCSC)C(=O)O` [L-Met-L-Met] (H-Met-Met-OH), the “Produced peptide” value was determined as 25.0 mM in assay [1] (setting [9]) and 28.4 mM in assay [2] (setting [10]).
In the case of `C[C@H](N)C(=O)N[C@@H](CCC(=O)O)C(=O)O` [L-Ala-L-Glu] (H-Ala-Glu-OH), the “Produced peptide” value worked out at 42.9 mM in assay [1] (setting [7]) and 39.1 mM in assay [2] (setting [8]).
Take `CC(C)[C@H](NC(=O)[C@@H](N)[C@@H](C)O)C(=O)O` [L-Thr-L-Val] (H-Thr-Val-OH): the “Produced peptide” value is recorded as 0.7 mM in assay [1] (setting [9]) and 1.3 mM in assay [2] (setting [10]).
For the compound `C[C@H](N)C(=O)N[C@@H](CCCCN)C(=O)O` [L-Ala-L-Lys] (H-Ala-Lys-OH), the “Produced peptide” value in assay [1] (setting [7]) is 71.8 mM; in assay [2] (setting [8]), 71.2 mM.
`C[C@@H](N)C(=O)N[C@H](CO)C(=O)O` [D-Ala-D-Ser] (H-[dA]-[dS]-OH): the “Produced peptide” value in assay [1] (setting [13]) is given as 0.2 mM; in assay [2] (setting [8]), 5.5 mM.
For L-Ala-L-Ala-L-Ala-L-Ala, the “Produced peptide” value is given as 44.5 mM in assay [1] (setting [11]) and 30.1 mM in assay [2] (setting [12]).
With `CC(C)[C@H](N)C(=O)N[C@@H](Cc1ccccc1)C(=O)O` [L-Val-L-Phe] (H-Val-Phe-OH), the “Produced peptide” value was 6.1 mM in assay [1] (setting [9]) and 1.0 mM in assay [2] (setting [10]).
As to `CNC(=O)CN` [Gly-methylamine], the “Produced peptide” value in assay [1] (amino acid methyl ester 100 mM, methylamine 150 mM) worked out at 1.1 mM; in assay [2] (setting [6]) it was 1.0 mM.
Take `NCCCC[C@H](NC(=O)CN)C(=O)O` [Gly-L-Lys] (H-Gly-Lys-OH): the entries for the “Produced peptide” value in assay [1] (setting [9]) and in assay [2] (setting [10]) were 9.8 mM and 48.2 mM, respectively.
Take `C[C@@H](O)[C@H](N)C(=O)N[C@@H](CCC(N)=O)C(=O)O` [L-Thr-L-Gln] (H-Thr-Gln-OH): the “Produced peptide” value in assay [1] (L-amino acid amide hydrochloride 100 mM as carboxy component, L-amino acid 150 mM) worked out at 0.3 mM; in assay [1] (setting [3]) it was 81.9 mM; in assay [2] (setting [4]) it was 36.1 mM.
For the compound L-Ala-L-His-L-Ala, the “Produced peptide” value in assay [1] (setting [11]) is recorded as 55.9 mM; in assay [2] (setting [12]), 58.0 mM.
